The target in this experiment is T1, Estrogen receptor (Homo sapiens, UniProt P03372).
T1 sequence (P03372 whole entry): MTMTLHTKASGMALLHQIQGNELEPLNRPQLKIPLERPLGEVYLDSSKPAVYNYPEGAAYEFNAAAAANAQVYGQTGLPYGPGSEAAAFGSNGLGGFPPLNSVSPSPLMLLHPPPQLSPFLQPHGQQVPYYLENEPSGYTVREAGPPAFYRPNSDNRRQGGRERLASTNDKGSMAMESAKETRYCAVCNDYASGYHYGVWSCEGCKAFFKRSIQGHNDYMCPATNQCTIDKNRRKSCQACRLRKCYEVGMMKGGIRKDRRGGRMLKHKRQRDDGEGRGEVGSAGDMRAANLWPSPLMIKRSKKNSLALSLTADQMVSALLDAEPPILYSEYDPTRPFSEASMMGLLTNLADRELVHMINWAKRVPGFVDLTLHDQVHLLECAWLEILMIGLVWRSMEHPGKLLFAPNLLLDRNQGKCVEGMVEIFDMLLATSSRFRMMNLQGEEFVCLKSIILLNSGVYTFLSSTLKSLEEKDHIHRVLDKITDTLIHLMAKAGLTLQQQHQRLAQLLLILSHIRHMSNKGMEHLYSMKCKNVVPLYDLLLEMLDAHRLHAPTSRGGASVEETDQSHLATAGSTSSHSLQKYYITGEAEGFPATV
The experiment in a line: Binding constant for Estrogen receptor alpha.

In ChEMBL document CHEMBL1135566, “Synthesis of a novel fluorescent probe for estrogen receptor” (Bioorg Med Chem Lett, 2002) one finds Kd data, which are given here for one molecule.

The Kd is the concentration at which binding is half-saturated. A lower Kd goes with higher affinity.

Molecule `CC/C(=C(/CC)c1ccc(OCCCC(=O)NCc2ccc(-c3c4ccc(=O)cc-4oc4cc(O)ccc34)c(C(=O)O)c2)cc1)c1ccc(O)cc1` displayed a Kd of 5.8 nM.
